Source: patent US9468610B2, “1-aminocyclohexane derivatives for the treatment of hearing loss” (MERZ PHARMA GmbH & CO. KGaA, priority 2007, dated 2016)

Assays:
[1] = tested on: subjects with diagnosed hearing loss; test: Double blind placebo controlled pilot trial of neramexane for treatment of hearing loss (Example 1); format: in vivo, human; conditions: neramexane mesylate up to 75 mg/day, modified release tablets, 16 weeks, versus placebo
Method: A hearing threshold level may be defined as the average of the pure tone hearing threshold levels at testing frequencies of 0.25, 0.5, 1, 2 and 4 kHz.
The primary objective of this study is to investigate the safety and efficacy of neramexane mesylate at daily doses of up to 75 mg in the treatment of hearing loss in comparison to placebo.
In order to be eligible to participate in the study, patients must meet the following criteria: • Male or female subjects aged between 18 and 80 years with diagnosed hearing loss of at least mild degree • Signed written informed consent • Female subjects must be at least 2 years post-menopausal or surgically sterile. Women of childbearing potential have to agree to use at least one effective method of contraception.
Visit 1 (screening): After signing the consent form, the subject undergoes a neurological and otological evaluation. […] Patient eligibility for study is evaluated via a check of inclusion/exclusion criteria.
Visit 2 (baseline): The subjects are asked about adverse events and changes in concomitant medication/disease, which events/changes are documented. Subject is evaluated for study eligibility based on a review of the inclusion/exclusion criteria. […]
Primary Outcome • Change from baseline in hearing threshold level of left/right ear (dB) calculated as average of the pure tone hearing level threshold levels at 0.25, 0.5, 1, 2 and 4 kHz. […]

[2] = tested on: patients suffering from persistent, subjective uni- or bilateral tinnitus; test: Double-blind, multicenter, randomized, placebo-controlled, parallel-group study in tinnitus patients; pure tone audiogram (Example 2); format: in vivo, human; conditions: 50 mg-dose group (25 mg immediate release tablets twice daily), after 16 weeks treatment, compared to placebo; FIG. 1
Method: Participants received either neramexane mesylate (e.g. 50 mg, as 25 mg immediate release tablets given twice daily) or placebo twice daily for 16 weeks. Neramexane mesylate was uptitrated in weekly steps of 12.5 or 25 mg during a 4-week uptitration period preceding the fixed-dose 12-week treatment period. Treatment was followed by a four week follow-up period.

CC1(C)CC(C)(C)CC(C)(N)C1 [neramexane, 1-amino-1,3,3,5,5-pentamethylcyclohexane]
Secondary outcomes: high frequency hearing threshold, individual frequencies, responders, patient-reported outcome, hearing impairment grade [1]: improvement | Primary outcomes: change from baseline in hearing threshold level of left/right ear ([1]; average of pure tone thresholds at 0.25, 0.5, 1, 2 and 4 kHz): improvement | Individual frequencies (hearing thresholds) on a pure tone audiogram (air conduction), secondary efficacy analysis [2]: trend for a modest treatment effect compared to placebo
